From patent US8598114B2, “Antimicrobial compounds” (priority 2007, dated 2013) come the findings set out here.

Values after ≈ are worked out from the molar mass of the structure shown. Peptide text beside a SMILES is read from it. * marks the point of attachment. NHPhenethyl = c1ccc(CCN*)cc1 Where only a bound is given, the exact number is not on record here.

One data set relates to trypsin. Kind of data set: in vitro. Format: in vitro ADME. Particulars: pH 8.6. Here is the method: Measurements and Calculation of Peptide Half-Life
Each peptide was dissolved in a 0.1 M NH4HCO3 buffer (pH 6.5) to yield a final peptide concentration of 1 mg/ml. A trypsin solution was prepared by dissolving 1 mg of trypsin in 50 ml 0.1 M NH4HCO3 buffer (pH 8.2). For the stability determination, 250 μl freshly made trypsin solution and 250 μl peptide solution were incubated in 2 ml of 0.1 M NH4HCO3 buffer (pH 8.6) at 37° C. on a rocking table. Aliquots of 0.5 ml were sampled at different time intervals, diluted with 0.5 ml water:acetonitrile (60:40 v/v) containing 1% TFA and analysed by RP-HPLC as described above. Samples without trypsin addition taken at 0 h and after 20 h at 37° C. were used as negative controls. Integration of the peak area at 254 nm for samples taken during the first 5 hours of the assay was used to generate the τ1/2.

For the next data set, the system named is MRSA. Kind of data set: Minimal inhibitory concentration (Example 6). Format: cell-based.
For the next data set, the system named is Str. pyogenes. Put plainly: Minimal inhibitory concentration (Example 6). Type of data set: cell-based.
For a further data set, the system named is S. aureus. Kind of data set: Minimal inhibitory concentration (Example 6). Type of data set: cell-based.
The subject of the next data set is E. coli. Put plainly: Minimal inhibitory concentration (Example 6). Type of data set: cell-based.

As usually defined, the half-life is the time needed for the level to fall by half in the phase considered. Consider `N=C(N)NCCC[C@H](NC(=O)[C@H](Cc1c[nH]c2ccccc12)NC(=O)[C@@H](N)CCCNC(=N)N)C(=O)NCCc1ccccc1` [Compound 6, reference compound] (H-Arg-Trp-Arg-NHPhenethyl), for which the half-life at 0.1 mg/ml in the data set on trypsin (isolated enzyme trypsin) was 7 h.

In the case of `N=C(N)NCCC[C@H](NC(=O)[C@H](Cc1ccc(-c2ccc(-c3ccccc3)cc2)cc1)NC(=O)[C@@H](N)CCCNC(=N)N)C(=O)NCCc1ccccc1` [Compound 5], the half-life at 0.1 mg/ml with trypsin was > 24 h.

For `CC(C)(C)c1cc(C(C)(C)C)c2[nH]c(C(C)(C)C)c(C[C@H](NC(=O)[C@@H](N)CCCNC(=N)N)C(=O)N[C@@H](CCCNC(=N)N)C(=O)NCCc3ccccc3Br)c2c1` [—(CH2)2—(2-BrPh), H-Arg-Tbt-Arg-NH(CH)2(2-Br-phenyl)], the “Minimal inhibitory concentration MRSA” value with MRSA was 3 µg/mL (≈ 3.46 µM). Moreover, in the data set with Str. pyogenes, the “Minimal inhibitory concentration Str. pyogenes” value came out at 3 µg/mL (≈ 3.46 µM). Besides, the “Minimal inhibitory concentration S. aureus” value in the data set on S. aureus was found to be 3 µg/mL (≈ 3.46 µM). Moreover, the “Minimal inhibitory concentration E. coli” value in the data set with E. coli amounted to 6 µg/mL (≈ 6.92 µM). Regarding `N=C(N)NCCC[C@H](NC(=O)[C@H](Cc1ccc(-c2cccc3ccccc23)cc1)NC(=O)[C@@H](N)CCCNC(=N)N)C(=O)NCCc1ccccc1` [Compound 3], the half-life at 0.1 mg/ml in the data set with trypsin (isolated enzyme trypsin) is 20 h.
